Reference: ChEMBL document CHEMBL5154789 (J Med Chem, 2022)
Active and inactive are the calls of the source. The calls are words filed in the database; no cut-off is given here.

What was measured:
[1] = biological target: Fibroblast growth factor receptor 4 (Homo sapiens, UniProt P22455); assay: Inhibition of N-terminal 6His-tagged FGFR4 (unknown orgin) (445 to 753 residues) expressed in Rosetta (NEB) cells using Tyr 04 peptide as substrate incubated for 1 hr in presence of 150 uM ATP by FRET based Z'-LYTE assay
[2] = biological target: Fibroblast growth factor receptor 2 (Homo sapiens, UniProt P21802)
Description: Inhibition of FGFR2 (unknown orgin) using Tyr 04 peptide as substrate incubated for 1 hr in presence of 5 uM ATP by FRET based Z'-LYTE assay

[3] = biological target: Fibroblast growth factor receptor 3 (Homo sapiens, UniProt P22607)
Description: Inhibition of FGFR3 (unknown orgin) using Tyr 04 peptide as substrate incubated for 1 hr in presence of 75 uM ATP by FRET based Z'-LYTE assay

BaF3 [4] = assay: cells; conditions: Mus musculus, BaF3, 72 h
MDA-MB-453 = assay: cells; conditions: Homo sapiens, MDA-MB-453, 120 h
Description: Antiproliferative activity against human MDA-MB-453 cells assessed as inhibition of cell growth incubated for 5 days by SRB assay

Hep 3B2 = assay: cells; conditions: Homo sapiens, Hep3B, 120 h
Description: Antiproliferative activity against human Hep3B cells assessed as inhibition of cell growth incubated for 5 days by SRB assay

NCI-H1299 = assay: cells; conditions: Homo sapiens, NCI-H1299, 120 h
Description: Antiproliferative activity against human NCI-H1299 cells assessed as inhibition of cell growth incubated for 5 days by SRB assay

[5] = biological target: Fibroblast growth factor receptor 1 (Homo sapiens, UniProt P11362)
Description: Inhibition of FGFR1 (unknown orgin) using Tyr 04 peptide as substrate incubated for 1 hr in presence of 25 uM ATP by FRET based Z'-LYTE assay

BaF3 [6] = assay: Antiproliferative activity against mouse BAF3 cells expressing FGFR4 V550M mutant assessed as inhibition of cell growth incubated for 72 hrs by CCK8 assay; type: functional, cell-based; conditions: BaF3, 72 h
[7] = Antiproliferative activity against human JHH7 cells assessed as inhibition of cell growth incubated for 5 days by SRB assay; type: functional, cell-based; conditions: JHH7, 120 h
Huh-7 [8] = assay: Antiproliferative activity against human Huh-7 cells assessed as inhibition of cell growth incubated for 5 days by SRB assay; type: functional, cell-based; conditions: Huh-7, 120 h
BaF3 [9] = assay: Antiproliferative activity against mouse BAF3 cells assessed as inhibition of cell growth incubated for 72 hrs by CCK8 assay; type: functional, cell-based; conditions: BaF3, 72 h
BaF3 [10] = assay: cells; conditions: Mus musculus, BaF3, 72 h; remark: listed apart in the source
[11] = biological target: Fibroblast growth factor receptor 4 (Mus musculus) (UniProt Q03142); assay: Inhibition of wild type FGFR4 phosphorylation in mouse BAF3 cells at 30 nM incubated for 6 hrs by Western blot analysis; type: cell-based
[12] = biological target: Fibroblast growth factor receptor 4 (Mus musculus) (UniProt Q03142); assay: Inhibition of wild type FGFR4 phosphorylation in mouse BAF3 cells assessed as reduction in FRS2 level at 3 to 90 nM incubated for 6 hrs by Western blot analysis; type: cell-based; conditions: dose 3-90 nM
[13] = biological target: Fibroblast growth factor receptor 4 (Mus musculus) (UniProt Q03142); assay: Inhibition of wild type FGFR4 phosphorylation in mouse BAF3 cells assessed as reduction in MAPK level at 3 to 90 nM incubated for 6 hrs by Western blot analysis; type: cell-based; conditions: dose 3-90 nM
BaF3 [14] = assay: Inhibition of FGFR4 V550L mutant signalling in mouse BAF3 cells at 3 to 90 nM incubated for 6 hrs by Western blot analysis; type: cell-based; conditions: dose 3-90 nM
Huh-7 [15] = assay: Antitumor activity against human Huh-7 cells xenografted in ip dosed BALB/c nude mouse assessed as tumor growth inhibition administered twice daily for 17 continuous days and measured every 2 days; type: functional, organism-based; conditions: time 17.0 day, DDE = dose-dependent effect
Huh-7 [16] = assay: Antitumor activity against human Huh-7 cells xenografted in BALB/c nude mouse assessed as tumor growth inhibition at 20 mg/kg, ip administered twice daily for 17 continuous days and measured every 2 days; type: functional; conditions: Huh-7, 408 h, time 17 day, read-out: TGI
Huh-7 [17] = assay: Antitumor activity against human Huh-7 cells xenografted in BALB/c nude mouse assessed as tumor growth inhibition at 40 mg/kg, ip administered twice daily for 17 continuous days and measured every 2 days; type: functional; conditions: Huh-7, 408 h, time 17 day, read-out: TGI
[18] = Toxicity in BALB/c nude mouse xenografted with human Huh-7 cells assessed as loss of body weight at 20 to 40 mg/kg, […] administered twice daily for 17 days and measured every 2 days; type: organism-based; conditions: in vivo, 408 h, dose 20-40 mg/kg, time 17 day

Chain of Fibroblast growth factor receptor 4 (P22455 whole entry, the tested form may be a part): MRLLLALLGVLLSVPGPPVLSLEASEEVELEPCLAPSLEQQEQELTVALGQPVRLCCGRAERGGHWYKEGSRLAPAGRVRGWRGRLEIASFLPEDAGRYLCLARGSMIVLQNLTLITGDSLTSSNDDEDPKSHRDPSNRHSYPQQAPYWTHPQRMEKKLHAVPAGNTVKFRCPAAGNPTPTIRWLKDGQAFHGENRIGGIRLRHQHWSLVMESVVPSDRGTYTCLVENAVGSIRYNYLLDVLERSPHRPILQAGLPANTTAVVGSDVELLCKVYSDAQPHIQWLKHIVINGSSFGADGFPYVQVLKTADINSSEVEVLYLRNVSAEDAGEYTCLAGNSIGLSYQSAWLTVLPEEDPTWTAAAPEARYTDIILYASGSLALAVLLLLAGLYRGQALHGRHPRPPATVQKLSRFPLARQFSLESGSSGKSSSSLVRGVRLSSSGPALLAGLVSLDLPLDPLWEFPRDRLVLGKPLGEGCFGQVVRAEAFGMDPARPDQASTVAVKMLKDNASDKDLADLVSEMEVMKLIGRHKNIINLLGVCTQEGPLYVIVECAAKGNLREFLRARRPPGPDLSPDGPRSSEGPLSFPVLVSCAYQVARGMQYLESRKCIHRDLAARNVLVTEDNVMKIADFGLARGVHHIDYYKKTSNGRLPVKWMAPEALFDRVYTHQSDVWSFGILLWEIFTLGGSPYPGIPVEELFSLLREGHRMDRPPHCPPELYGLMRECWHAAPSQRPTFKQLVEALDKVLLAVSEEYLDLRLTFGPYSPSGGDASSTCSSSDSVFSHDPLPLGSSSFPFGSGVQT
Chain of Fibroblast growth factor receptor 3 (P22607 whole entry): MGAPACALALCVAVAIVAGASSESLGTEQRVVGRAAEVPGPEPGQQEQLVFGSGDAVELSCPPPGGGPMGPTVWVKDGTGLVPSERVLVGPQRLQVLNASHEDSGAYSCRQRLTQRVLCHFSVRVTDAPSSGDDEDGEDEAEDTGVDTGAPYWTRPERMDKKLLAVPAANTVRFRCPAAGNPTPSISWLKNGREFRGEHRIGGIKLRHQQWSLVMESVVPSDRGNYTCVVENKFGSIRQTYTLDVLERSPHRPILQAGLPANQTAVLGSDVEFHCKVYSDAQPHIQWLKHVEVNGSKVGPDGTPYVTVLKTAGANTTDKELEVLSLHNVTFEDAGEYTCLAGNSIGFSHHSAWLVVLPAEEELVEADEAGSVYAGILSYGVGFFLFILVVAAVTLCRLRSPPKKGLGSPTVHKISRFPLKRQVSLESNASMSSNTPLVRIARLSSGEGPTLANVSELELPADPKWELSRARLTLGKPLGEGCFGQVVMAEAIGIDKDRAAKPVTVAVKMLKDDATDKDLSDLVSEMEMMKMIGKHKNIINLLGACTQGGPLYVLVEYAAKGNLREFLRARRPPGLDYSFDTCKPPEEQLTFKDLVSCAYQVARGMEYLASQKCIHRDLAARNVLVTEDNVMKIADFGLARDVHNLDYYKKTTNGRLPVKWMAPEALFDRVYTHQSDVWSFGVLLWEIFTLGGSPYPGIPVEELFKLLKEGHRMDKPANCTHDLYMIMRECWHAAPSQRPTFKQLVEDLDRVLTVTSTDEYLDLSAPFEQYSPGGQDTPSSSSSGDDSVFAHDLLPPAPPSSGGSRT
Chain of Fibroblast growth factor receptor 1 (P11362 whole entry): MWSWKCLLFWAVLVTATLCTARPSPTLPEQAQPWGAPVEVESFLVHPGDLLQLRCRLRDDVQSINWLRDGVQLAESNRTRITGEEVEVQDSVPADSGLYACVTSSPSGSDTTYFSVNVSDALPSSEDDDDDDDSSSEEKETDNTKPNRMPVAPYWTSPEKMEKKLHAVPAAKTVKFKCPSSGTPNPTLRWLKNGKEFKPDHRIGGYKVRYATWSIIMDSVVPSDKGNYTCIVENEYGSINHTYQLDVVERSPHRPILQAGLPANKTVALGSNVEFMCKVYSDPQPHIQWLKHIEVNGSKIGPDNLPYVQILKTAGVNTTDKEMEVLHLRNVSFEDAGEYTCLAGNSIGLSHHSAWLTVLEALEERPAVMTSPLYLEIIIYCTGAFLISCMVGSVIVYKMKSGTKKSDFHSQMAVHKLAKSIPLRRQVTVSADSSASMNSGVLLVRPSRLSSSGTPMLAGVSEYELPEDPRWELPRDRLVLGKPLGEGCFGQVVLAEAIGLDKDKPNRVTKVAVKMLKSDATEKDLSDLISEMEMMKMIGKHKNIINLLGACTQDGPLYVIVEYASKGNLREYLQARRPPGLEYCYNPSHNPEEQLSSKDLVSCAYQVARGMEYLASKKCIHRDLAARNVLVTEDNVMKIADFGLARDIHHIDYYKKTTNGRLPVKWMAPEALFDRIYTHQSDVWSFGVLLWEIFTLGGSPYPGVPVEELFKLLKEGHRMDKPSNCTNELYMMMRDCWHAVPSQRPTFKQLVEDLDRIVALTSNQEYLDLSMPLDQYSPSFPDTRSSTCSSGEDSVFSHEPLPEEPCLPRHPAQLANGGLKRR
Chain of Fibroblast growth factor receptor 2 (P21802 whole entry): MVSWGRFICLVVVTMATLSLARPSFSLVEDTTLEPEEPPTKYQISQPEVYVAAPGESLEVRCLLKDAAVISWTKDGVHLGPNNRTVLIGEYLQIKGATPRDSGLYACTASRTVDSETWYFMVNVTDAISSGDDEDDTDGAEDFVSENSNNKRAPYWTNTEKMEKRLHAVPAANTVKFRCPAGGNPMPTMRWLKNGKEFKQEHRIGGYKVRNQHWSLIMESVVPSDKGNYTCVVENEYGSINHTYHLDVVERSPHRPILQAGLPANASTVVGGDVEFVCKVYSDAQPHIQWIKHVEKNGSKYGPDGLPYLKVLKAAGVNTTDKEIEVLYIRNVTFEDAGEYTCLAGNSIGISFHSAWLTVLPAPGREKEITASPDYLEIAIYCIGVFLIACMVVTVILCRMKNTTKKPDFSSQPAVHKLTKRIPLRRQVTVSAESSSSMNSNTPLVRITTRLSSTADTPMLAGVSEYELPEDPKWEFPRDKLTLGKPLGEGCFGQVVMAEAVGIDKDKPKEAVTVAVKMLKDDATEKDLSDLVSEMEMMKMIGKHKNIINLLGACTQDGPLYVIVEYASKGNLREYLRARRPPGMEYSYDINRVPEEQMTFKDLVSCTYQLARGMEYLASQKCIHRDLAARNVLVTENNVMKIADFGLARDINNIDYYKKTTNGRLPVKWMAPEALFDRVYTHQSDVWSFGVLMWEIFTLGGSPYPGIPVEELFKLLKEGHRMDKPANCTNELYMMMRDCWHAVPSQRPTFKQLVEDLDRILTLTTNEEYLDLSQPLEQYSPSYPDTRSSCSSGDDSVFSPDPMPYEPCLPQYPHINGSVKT
Chain of Fibroblast growth factor receptor 4 (Mus musculus) (Q03142 17-799 limits assumed): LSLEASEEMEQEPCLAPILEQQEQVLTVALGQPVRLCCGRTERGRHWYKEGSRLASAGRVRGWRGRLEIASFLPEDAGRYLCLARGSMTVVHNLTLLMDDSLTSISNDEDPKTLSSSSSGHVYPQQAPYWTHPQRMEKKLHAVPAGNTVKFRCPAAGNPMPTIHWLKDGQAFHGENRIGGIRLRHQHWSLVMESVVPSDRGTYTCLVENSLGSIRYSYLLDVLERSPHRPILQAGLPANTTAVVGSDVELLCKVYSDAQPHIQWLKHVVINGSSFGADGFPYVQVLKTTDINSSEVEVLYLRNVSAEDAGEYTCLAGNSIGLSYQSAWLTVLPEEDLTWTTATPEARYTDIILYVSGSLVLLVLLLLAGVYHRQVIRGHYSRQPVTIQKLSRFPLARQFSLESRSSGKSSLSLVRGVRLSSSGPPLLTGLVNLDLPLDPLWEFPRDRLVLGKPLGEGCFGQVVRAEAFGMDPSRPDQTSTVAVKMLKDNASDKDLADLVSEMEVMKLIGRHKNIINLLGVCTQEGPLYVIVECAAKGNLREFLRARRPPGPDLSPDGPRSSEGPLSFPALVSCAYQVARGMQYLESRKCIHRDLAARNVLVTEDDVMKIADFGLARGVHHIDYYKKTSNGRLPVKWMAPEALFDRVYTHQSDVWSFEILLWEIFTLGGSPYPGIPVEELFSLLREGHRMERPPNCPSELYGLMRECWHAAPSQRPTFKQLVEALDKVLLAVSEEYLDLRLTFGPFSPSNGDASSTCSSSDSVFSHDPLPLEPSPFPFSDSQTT

Row | SMILES | IC50 [2] [nM] | IC50 [3] [nM] | IC50 (BaF3 [4]) [nM] | IC50 (MDA-MB-453) [nM] | IC50 (Hep 3B2) [nM] | IC50 (NCI-H1299) [nM] | other results
1 | C=CC(=O)Nc1cccc(CC)c1Nc1n[nH]c2ccc(O[C@H](C)c3c(Cl)cncc3Cl)cc12 | > 10000 | > 10000 | > 2000 | 7590 | 16300 | 4580 | IC50 [1]: > 10000 nM
2 | C=CC(=O)Nc1ccccc1Nc1n[nH]c2ccc(OC(CC)c3c(Cl)cncc3Cl)cc12 (stereo unspecified) | > 10000 | – | – | – | – | – | –
3 | C=CC(=O)Nc1ccccc1Nc1n[nH]c2ccc(OCc3c(Cl)cncc3Cl)cc12 | > 10000 | – | – | – | – | – | –
4 | C=CC(=O)Nc1cccc(Cl)c1Nc1n[nH]c2ccc(O[C@H](C)c3c(Cl)cncc3Cl)cc12 | > 10000 | > 10000 | 3 | 570 | 4440 | 6100 | –
5 | C=CC(=O)N[C@H]1CCOC[C@H]1Nc1n[nH]c2ccc(O[C@H](C)c3c(Cl)cncc3Cl)cc12 | > 10000 | > 10000 | – | – | – | – | IC50 [1]: > 10000 nM
6 | C=CC(=O)Nc1cc(N2CCOCC2)ccc1Nc1n[nH]c2ccc(O[C@H](C)c3c(Cl)cncc3Cl)cc12 | > 10000 | > 10000 | 15 | 750 | 730 | 5310 | –
7 | C=CC(=O)Nc1cc(N2CCC(N3CCN(C)CC3)CC2)cc(F)c1Nc1n[nH]c2ccc(O[C@H](C)c3c(Cl)cncc3Cl)cc12 | > 10000 | > 10000 | 1.7 | 10 | 47 | 1580 | IC50 [5]: > 10000 nM
8 | C=CC(=O)Nc1cc(N2CCOCC2)cc(F)c1Nc1n[nH]c2ccc(O[C@H](C)c3c(Cl)cncc3Cl)cc12 | > 10000 | > 10000 | 9.5 | 64 | 220 | 3760 | –
9 | C=CC(=O)Nc1cn(C)nc1Nc1n[nH]c2ccc(O[C@H](C)c3c(Cl)cncc3Cl)cc12 | > 10000 | > 10000 | – | – | – | – | –
10 | C=CC(=O)Nc1cc(N2CCN(C3COC3)CC2)cc(F)c1Nc1n[nH]c2ccc(O[C@H](C)c3c(Cl)cncc3Cl)cc12 | > 10000 | > 10000 | 1.9 | 14 | 51 | 3000 | IC50 [5]: > 10000 nM
11 | C=CC(=O)Nc1cc(N2CCC(N(C)C)CC2)cc(F)c1Nc1n[nH]c2ccc(O[C@H](C)c3c(Cl)cncc3Cl)cc12 | > 10000 | > 10000 | 1.5 | 7 | 50 | 1600 | IC50 [5]: > 10000 nM
12 | C=CC(=O)N[C@H]1CCCC[C@H]1Nc1n[nH]c2ccc(O[C@H](C)c3c(Cl)cncc3Cl)cc12 | > 10000 | > 10000 | – | – | – | – | IC50 [1]: > 10000 nM
13 | C=CC(=O)N1CCC[C@@H](Nc2n[nH]c3ccc(O[C@H](C)c4c(Cl)cncc4Cl)cc23)C1 | > 10000 | > 10000 | – | – | – | – | IC50 [1]: > 10000 nM
14 | C=CC(=O)Nc1cccc(C)c1Nc1n[nH]c2ccc(O[C@H](C)c3c(Cl)cncc3Cl)cc12 | > 10000 | > 10000 | 2 | 620 | 2700 | 9120 | –
15 | C=CC(=O)Nc1cc(N2CCN(C)CC2)ccc1Nc1n[nH]c2ccc(O[C@H](C)c3c(Cl)cncc3Cl)cc12 | > 10000 | > 10000 | 6 | 120 | 290 | 2530 | –
16 | C=CC(=O)Nc1cc(N(C)CCOC)cc(F)c1Nc1n[nH]c2ccc(O[C@H](C)c3c(Cl)cncc3Cl)cc12 | > 10000 | > 10000 | 20 | 210 | 330 | 4760 | –

Row | SMILES | IC50 [2] [nM] | IC50 [3] [nM] | IC50 (BaF3 [4]) [nM] | IC50 (MDA-MB-453) [nM] | IC50 (Hep 3B2) [nM] | IC50 (NCI-H1299) [nM] | other results
17 | C=CC(=O)Nc1cccc(Cl)c1Nc1ncc2cc(-c3c(Cl)c(OC)cc(OC)c3Cl)ccc2n1 | 238 | – | 2.4 | 62 | 160 | 1070 | IC50 (BaF3 [6]): > 100 nM; IC50 [7]: 194 nM; IC50 (Huh-7 [8]): 48 nM; IC50 (BaF3 [9]): > 1000 nM; IC50 (BaF3 [10]): > 100 nM
18 | C=CC(=O)Nc1cccc(F)c1Nc1n[nH]c2ccc(O[C@H](C)c3c(Cl)cncc3Cl)cc12 | > 10000 | > 10000 | 7.6 | 190 | 710 | 3800 | –
19 | C=CC(=O)Nc1ccccc1Nc1n[nH]c2cc(-c3c(Cl)c(OC)cc(OC)c3Cl)ccc12 | 4770 | – | – | – | – | – | IC50 [1]: > 10000 nM
20 | CCC(=O)Nc1ccccc1Nc1n[nH]c2ccc(O[C@H](C)c3c(Cl)cncc3Cl)cc12 | > 10000 | > 10000 | – | – | – | – | –
21 | C=CC(=O)Nc1cc(N2CCN(C)CC2)cc(F)c1Nc1n[nH]c2ccc(O[C@H](C)c3c(Cl)cncc3Cl)cc12 | > 10000 | > 10000 | 0.9 | 18 | 18 | 2060 | IC50 (BaF3 [6]): 3.7 nM; IC50 [7]: 28 nM; IC50 (Huh-7 [8]): 96 nM; IC50 (BaF3 [9]): > 1000 nM; IC50 [5]: > 10000 nM; IC50 (BaF3 [10]): 2.5 nM
22 | C=CC(=O)Nc1cc(N2CCC(N3CCOCC3)CC2)ccc1Nc1n[nH]c2ccc(O[C@H](C)c3c(Cl)cncc3Cl)cc12 | > 10000 | > 10000 | 0.2 | 110 | 220 | 3360 | IC50 [5]: > 10000 nM
23 | C=CC(=O)Nc1cc(N2CCN(S(C)(=O)=O)CC2)cc(F)c1Nc1c[nH]c2ccc(O[C@H](C)c3c(Cl)cncc3Cl)cc12 | > 10000 | > 10000 | 6.5 | 33 | 110 | 2760 | IC50 [5]: > 10000 nM
24 | C=CC(=O)Nc1ccccc1Nc1n[nH]c2ccc(OC(C)c3c(Cl)ccc(F)c3Cl)cc12 (stereo unspecified) | > 10000 | > 10000 | – | – | – | – | –
25 | C=CC(=O)Nc1ccccc1Nc1n[nH]c2ccc(O[C@H](C)c3c(Cl)cncc3Cl)cc12 | 949 | – | – | – | – | – | –
26 | C=CC(=O)Nc1ccccc1Nc1n[nH]c2ccc(OC(C)c3c(Cl)cccc3Cl)cc12 (stereo unspecified) | > 10000 | > 10000 | – | – | – | – | IC50 [1]: > 10000 nM
27 | C=CC(=O)Nc1cccc(OC)c1Nc1n[nH]c2ccc(O[C@H](C)c3c(Cl)cncc3Cl)cc12 | > 10000 | > 10000 | 3560 | 5190 | 10500 | 4880 | –
28 | C=CC(=O)Nc1ccc(OC)cc1Nc1n[nH]c2ccc(O[C@H](C)c3c(Cl)cncc3Cl)cc12 | > 10000 | > 10000 | 1990 | 15200 | 30200 | 12500 | IC50 [1]: > 10000 nM
29 | C=CC(=O)Nc1cc(N2CCC(N3CCOCC3)CC2)cc(F)c1Nc1n[nH]c2ccc(O[C@H](C)c3c(Cl)cncc3Cl)cc12 | > 10000 | > 10000 | 3.5 | 34 | 29 | 2970 | IC50 (BaF3 [6]): 8.1 nM; IC50 [7]: 54 nM; IC50 (Huh-7 [8]): 72 nM; IC50 (BaF3 [9]): > 1000 nM; inhibition [11]: Active; inhibition [12]: Active; inhibition [13]: Active; inhibition (BaF3 [14]): Active; Activity (Huh-7 [15]): Dde; inhibition in vivo at 20 mg/kg (Huh-7 [16]): 25.9%; inhibition in vivo at 40 mg/kg (Huh-7 [17]): 46.9%; Activity [18]: Non-Toxic; IC50 [5]: > 10000 nM; IC50 (BaF3 [10]): 4.7 nM
30 | C=CC(=O)Nc1cccc(C2CC2)c1Nc1n[nH]c2ccc(O[C@H](C)c3c(Cl)cncc3Cl)cc12 | > 10000 | > 10000 | 520 | 7550 | 15300 | 5170 | IC50 [1]: > 10000 nM
31 | C=CC(=O)N1CC[C@@H](Nc2n[nH]c3ccc(O[C@H](C)c4c(Cl)cncc4Cl)cc23)C1 | > 10000 | > 10000 | – | – | – | – | –
